Assay results from the NIST ThermoML archive (doi:10.1021/je500804j).
Numbers after ± are expanded uncertainties.

Test: mn = molality of the nth substance listed, in mol/kg
Details: 101 kPa, Liquid, Alternating current cell with electrodes

Compound CCCCCCCC[N+](C)(C)CCCCCC[N+](C)(C)CCCCCCCC.[Br-].[Br-] + O has an electrical conductivity (303.15 K, m1 = 0.1147) of 1.235 ± 0.005 S/m, an electrical conductivity (303.15 K, m1 = 0.1161) of 1.242 ± 0.005 S/m and an electrical conductivity (308.15 K, m1 = 0.00368) of 0.09215 ± 0.00058 S/m. The electrical conductivity (308.15 K, m1 = 0.00726) was 0.1725 ± 0.00082 S/m, the electrical conductivity (308.15 K, m1 = 0.01076) was 0.2453 ± 0.0011 S/m and the electrical conductivity (308.15 K, m1 = 0.01417) was 0.3115 ± 0.0013 S/m. For the same compound, the electrical conductivity (308.15 K, m1 = 0.0175) was 0.3725 ± 0.0015 S/m, the electrical conductivity (308.15 K, m1 = 0.02076) was 0.4289 ± 0.0018 S/m and the electrical conductivity (308.15 K, m1 = 0.02394) was 0.4827 ± 0.002 S/m. It also gave an electrical conductivity (308.15 K, m1 = 0.02704) of 0.5324 ± 0.0022 S/m, an electrical conductivity (308.15 K, m1 = 0.03008) of 0.5804 ± 0.0024 S/m and an electrical conductivity (308.15 K, m1 = 0.03304) of 0.6259 ± 0.0025 S/m. For the same compound, the electrical conductivity (308.15 K, m1 = 0.03595) was 0.6694 ± 0.0027 S/m, the electrical conductivity (308.15 K, m1 = 0.03878) was 0.7099 ± 0.0029 S/m and the electrical conductivity (308.15 K, m1 = 0.04156) was 0.7496 ± 0.003 S/m. It also gave an electrical conductivity (308.15 K, m1 = 0.04428) of 0.7852 ± 0.0032 S/m, an electrical conductivity (308.15 K, m1 = 0.04693) of 0.8231 ± 0.0033 S/m and an electrical conductivity (308.15 K, m1 = 0.05209) of 0.8882 ± 0.0036 S/m. The electrical conductivity (308.15 K, m1 = 0.05458) was 0.9163 ± 0.0037 S/m, the electrical conductivity (308.15 K, m1 = 0.05703) was 0.9472 ± 0.0038 S/m and the electrical conductivity (308.15 K, m1 = 0.05942) was 0.9728 ± 0.0039 S/m. For the same compound, the electrical conductivity (308.15 K, m1 = 0.06177) was 1.001 ± 0.004 S/m, the electrical conductivity (308.15 K, m1 = 0.06407) was 1.027 ± 0.0041 S/m and the electrical conductivity (308.15 K, m1 = 0.06633) was 1.05 ± 0.0042 S/m. The electrical conductivity (308.15 K, m1 = 0.06854) was 1.072 ± 0.0043 S/m, the electrical conductivity (308.15 K, m1 = 0.07072) was 1.092 ± 0.0044 S/m and the electrical conductivity (308.15 K, m1 = 0.07284) was 1.111 ± 0.0045 S/m. It also gave an electrical conductivity (308.15 K, m1 = 0.07493) of 1.128 ± 0.0045 S/m, an electrical conductivity (308.15 K, m1 = 0.07698) of 1.149 ± 0.0046 S/m and an electrical conductivity (308.15 K, m1 = 0.079) of 1.164 ± 0.0047 S/m. It also gave an electrical conductivity (308.15 K, m1 = 0.08097) of 1.182 ± 0.0048 S/m, an electrical conductivity (308.15 K, m1 = 0.08291) of 1.195 ± 0.0048 S/m and an electrical conductivity (308.15 K, m1 = 0.08482) of 1.211 ± 0.0049 S/m. For the same compound, the electrical conductivity (308.15 K, m1 = 0.08669) was 1.225 ± 0.0049 S/m, the electrical conductivity (308.15 K, m1 = 0.08852) was 1.238 ± 0.005 S/m and the electrical conductivity (308.15 K, m1 = 0.09033) was 1.251 ± 0.005 S/m. It also gave an electrical conductivity (308.15 K, m1 = 0.0921) of 1.264 ± 0.0051 S/m, an electrical conductivity (308.15 K, m1 = 0.09385) of 1.276 ± 0.0051 S/m and an electrical conductivity (308.15 K, m1 = 0.09556) of 1.286 ± 0.0052 S/m. It also gave an electrical conductivity (308.15 K, m1 = 0.09725) of 1.298 ± 0.0052 S/m, an electrical conductivity (308.15 K, m1 = 0.0989) of 1.308 ± 0.0053 S/m and an electrical conductivity (308.15 K, m1 = 0.1005) of 1.319 ± 0.0053 S/m. The electrical conductivity (308.15 K, m1 = 0.1021) was 1.326 ± 0.0053 S/m, the electrical conductivity (308.15 K, m1 = 0.1037) was 1.337 ± 0.0054 S/m and the electrical conductivity (308.15 K, m1 = 0.1053) was 1.346 ± 0.0054 S/m. It also gave an electrical conductivity (308.15 K, m1 = 0.1068) of 1.354 ± 0.0054 S/m, an electrical conductivity (308.15 K, m1 = 0.1083) of 1.363 ± 0.0055 S/m and an electrical conductivity (308.15 K, m1 = 0.1098) of 1.37 ± 0.0055 S/m. The electrical conductivity (308.15 K, m1 = 0.1112) was 1.38 ± 0.0056 S/m, the electrical conductivity (308.15 K, m1 = 0.1127) was 1.385 ± 0.0056 S/m and the electrical conductivity (308.15 K, m1 = 0.1141) was 1.392 ± 0.0056 S/m. For the same compound, the electrical conductivity (313.15 K, m1 = 0.00383) was 0.1036 ± 0.00063 S/m, the electrical conductivity (313.15 K, m1 = 0.00755) was 0.1854 ± 0.00085 S/m and the electrical conductivity (313.15 K, m1 = 0.01119) was 0.2548 ± 0.0011 S/m. It also gave an electrical conductivity (313.15 K, m1 = 0.01473) of 0.3279 ± 0.0014 S/m, an electrical conductivity (313.15 K, m1 = 0.01819) of 0.3993 ± 0.0016 S/m and an electrical conductivity (313.15 K, m1 = 0.02156) of 0.4651 ± 0.0019 S/m. For the same compound, the electrical conductivity (313.15 K, m1 = 0.02485) was 0.5281 ± 0.0022 S/m, the electrical conductivity (313.15 K, m1 = 0.02806) was 0.5866 ± 0.0024 S/m and the electrical conductivity (313.15 K, m1 = 0.0312) was 0.6397 ± 0.0026 S/m. For the same compound, the electrical conductivity (313.15 K, m1 = 0.03426) was 0.6934 ± 0.0028 S/m, the electrical conductivity (313.15 K, m1 = 0.03725) was 0.7428 ± 0.003 S/m and the electrical conductivity (313.15 K, m1 = 0.04018) was 0.7886 ± 0.0032 S/m. The electrical conductivity (313.15 K, m1 = 0.04304) was 0.8328 ± 0.0034 S/m, the electrical conductivity (313.15 K, m1 = 0.04583) was 0.8749 ± 0.0035 S/m and the electrical conductivity (313.15 K, m1 = 0.04857) was 0.9139 ± 0.0037 S/m. For the same compound, the electrical conductivity (313.15 K, m1 = 0.05386) was 0.9883 ± 0.004 S/m, the electrical conductivity (313.15 K, m1 = 0.05642) was 1.024 ± 0.0041 S/m and the electrical conductivity (313.15 K, m1 = 0.05893) was 1.055 ± 0.0042 S/m. The electrical conductivity (313.15 K, m1 = 0.06138) was 1.086 ± 0.0044 S/m, the electrical conductivity (313.15 K, m1 = 0.06379) was 1.114 ± 0.0045 S/m and the electrical conductivity (313.15 K, m1 = 0.06615) was 1.139 ± 0.0046 S/m. It also gave an electrical conductivity (313.15 K, m1 = 0.06845) of 1.165 ± 0.0047 S/m, an electrical conductivity (313.15 K, m1 = 0.07072) of 1.19 ± 0.0048 S/m and an electrical conductivity (313.15 K, m1 = 0.07293) of 1.212 ± 0.0049 S/m. It also gave an electrical conductivity (313.15 K, m1 = 0.07511) of 1.236 ± 0.005 S/m, an electrical conductivity (313.15 K, m1 = 0.07724) of 1.257 ± 0.005 S/m and an electrical conductivity (313.15 K, m1 = 0.07933) of 1.276 ± 0.0051 S/m. It also gave an electrical conductivity (313.15 K, m1 = 0.08138) of 1.296 ± 0.0052 S/m, an electrical conductivity (313.15 K, m1 = 0.08339) of 1.314 ± 0.0053 S/m and an electrical conductivity (313.15 K, m1 = 0.08537) of 1.332 ± 0.0053 S/m. It also gave an electrical conductivity (313.15 K, m1 = 0.0873) of 1.348 ± 0.0054 S/m, an electrical conductivity (313.15 K, m1 = 0.08921) of 1.364 ± 0.0055 S/m and an electrical conductivity (313.15 K, m1 = 0.09107) of 1.378 ± 0.0055 S/m. It also gave an electrical conductivity (313.15 K, m1 = 0.09291) of 1.392 ± 0.0056 S/m, an electrical conductivity (313.15 K, m1 = 0.09471) of 1.406 ± 0.0056 S/m and an electrical conductivity (313.15 K, m1 = 0.09648) of 1.418 ± 0.0057 S/m. It also gave an electrical conductivity (313.15 K, m1 = 0.09822) of 1.432 ± 0.0058 S/m, an electrical conductivity (313.15 K, m1 = 0.09993) of 1.444 ± 0.0058 S/m and an electrical conductivity (313.15 K, m1 = 0.1016) of 1.457 ± 0.0059 S/m. For the same compound, the electrical conductivity (313.15 K, m1 = 0.1032) was 1.467 ± 0.0059 S/m, the electrical conductivity (313.15 K, m1 = 0.1049) was 1.476 ± 0.0059 S/m and the electrical conductivity (313.15 K, m1 = 0.1065) was 1.487 ± 0.006 S/m. It also gave an electrical conductivity (313.15 K, m1 = 0.108) of 1.493 ± 0.006 S/m, an electrical conductivity (313.15 K, m1 = 0.1096) of 1.505 ± 0.006 S/m and an electrical conductivity (313.15 K, m1 = 0.1111) of 1.516 ± 0.0061 S/m. It also gave an electrical conductivity (313.15 K, m1 = 0.1126) of 1.527 ± 0.0061 S/m, an electrical conductivity (313.15 K, m1 = 0.1141) of 1.537 ± 0.0062 S/m and an electrical conductivity (313.15 K, m1 = 0.1155) of 1.545 ± 0.0062 S/m.
